Assays:
VEGF = format: cell-based, cat
[1] = test system: FOSCC cell lines (SCCF1, SCCF2, SCCF3); format: cell-based, cat; settings: MTT assay
Bcl11b = format: cell-based, cat
[2] = test system: canine glioblastoma J3T cells; test: cells; format: cell-based, dog; settings: Canis lupus familiaris, 72 h, read-out: mean IC50
tubulin = format: cell-based, dog
[3] = set-up: species or system horses (Thoroughbreds); settings: in vivo
[4] = dog, in vivo; cited from earlier work
[5] = format: in vivo, dog; settings: intravenous bolus 2 mg/kg; 2 dogs
[6] = format: in vivo, cat; settings: cats with CHF that received pimobendan; −561 in cats that did not; P = 0.045

Cc1nc(Nc2ncc(C(=O)Nc3c(C)cccc3Cl)s2)cc(N2CCN(CCO)CC2)n1 [Dasatinib, dasatinib]
VEGF production (VEGF): suppressed VEGF production
cell viability [1]: lowered cell viability
activation (phosphorylation) of Bcl11b (Bcl11b): inhibited activation of Bcl11b

COC(=O)Nc1nc2ccc(Sc3ccccc3)cc2[nH]1 [FBZ, fenbendazole]
IC50 [2]: 550 nM
tubulin depolymerization versus untreated control (tubulin): increased depolymerization of tubulin

COc1ccc2[nH]c([S+]([O-])Cc3ncc(C)c(OC)c3C)nc2c1 (stereo not drawn) [OME, omeprazole]
gastric ulcer scores [3]: significantly decreased

N.N.[Cl][Pt][Cl] [cisplatin]
reported MST for invasive thyroid carcinoma [4]: 98 days

CCN(CC)CC(=O)Nc1c(C)cccc1C [lidocaine]
response of polymorphic ventricular tachycardia [5]: no improvement was found

COc1ccc(-c2nc3ccc(C4=NNC(=O)CC4C)cc3[nH]2)cc1 (stereo not drawn) [pimobendan]
change in NT‐proBNP concentration from admission to discharge (median) [6]: -821 pmol/L
